Tests used:
[1] = molecular target: human cathepsin K (UniProt P43236); test: Cathepsin K Assay (hrbCat K); format: biochemical; conditions: human cathepsin K 0.4 nM, Z-Leu-Arg-AMC 8 μM, pH 5.5, 15 min preincubation; read-out: hrbCat K IP
Outline: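 Human cathepsin K (0.4 nM) in pH 5.5 MES buffer with EDTA, DTT and 10% DMSO was preincubated 15 min at room temperature with compound from a ⅓ dilution series (500-0.025 μM DMSO stocks). Z-Leu-Arg-AMC (8 μM) was then added, and AMC release was followed fluorometrically (Ex 360/Em 460 nm) for 30 min; inhibition was fitted to a dose-response model.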

[2] = molecular target: T1, human cathepsin F (Homo sapiens, UniProt Q9UBX1); test: Cathepsin F assay (hCat F); format: biochemical; conditions: human cathepsin F 10 nM, Z-Phe-Arg-AMC 8 μM, pH 5.5, 15 min preincubation; read-out: hCat F IP
T1 sequence (Q9UBX1 271-484): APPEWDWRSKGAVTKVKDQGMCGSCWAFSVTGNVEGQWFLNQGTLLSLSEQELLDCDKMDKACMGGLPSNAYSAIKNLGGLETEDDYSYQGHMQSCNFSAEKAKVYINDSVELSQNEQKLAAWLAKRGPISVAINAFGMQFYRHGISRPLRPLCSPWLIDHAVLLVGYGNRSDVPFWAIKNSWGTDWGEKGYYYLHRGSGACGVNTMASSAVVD
Outline: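 Human cathepsin F (10 nM) in 50 mM MES pH 5.5, 2.5 mM EDTA, 2.5 mM DTT, 10% DMSO was preincubated 15 min at RT with compounds from a ⅓ DMSO dilution series (500–0.025 μM stocks). Z-Phe-Arg-AMC was added (8 μM as added), and AMC release was read by fluorescence (360/460 nm) for 20 min. Percent inhibition was fitted to a dose-response model.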

Structure (SMILES)	IC50 [1] [nM]	IC50 [2] [nM]
N#CC1(NC(=O)[C@@H]2CCCC[C@H]2c2oc(-c3ncccn3)nc2-c2ccc(N3CCS(=O)(=O)CC3)cc2)CC1 [Example 90, (1R,2R)-N-(1-cyanocyclopropyl)-2-(4-(4-(1,1-dioxidothiomorpholino)phenyl)-2-(pyrimidin-2-yl)oxazol-5-yl)cyclohexanecarboxamide]	7.28	≥ 10000
N#CC1(NC(=O)[C@@H]2CCCC[C@H]2c2oc(-c3ccc(OC(F)F)nc3)nc2-c2ccc(N3CCS(=O)(=O)CC3)cc2)CC1 [Example 91, (1R,2R)-N-(1-cyanocyclopropyl)-2-(2-(6-(difluoromethoxy)pyridin-3-yl)-4-(4-(1,1-dioxidothiomorpholino)phenyl)oxazol-5-yl)cyclohexanecarboxamide]	1.3	1670
N#CC1(NC(=O)[C@@H]2CCCC[C@H]2c2oc(-c3cncc(N4CCS(=O)(=O)CC4)c3)nc2-c2ccc(N3CCS(=O)(=O)CC3)cc2)CC1 [Example 92, (1R,2R)-N-(1-cyanocyclopropyl)-2-(4-(4-(1,1-dioxidothiomorpholino)phenyl)-2-(5-(1,1-dioxidothiomorpholino)pyridin-3-yl)oxazol-5-yl)cyclohexanecarboxamide]	0.92	803
N#Cc1cccc(-c2nc(-c3ccc(N4CCS(=O)(=O)CC4)cc3)c([C@@H]3CCCC[C@H]3C(=O)NC3(C#N)CC3)o2)c1 [Example 93, (1R,2R)-N-(1-cyanocyclopropyl)-2-(2-(3-cyanophenyl)-4-(4-(1,1-dioxidothiomorpholino)phenyl)oxazol-5-yl)cyclohexanecarboxamide]	1.89	1100
N#CC1(NC(=O)[C@@H]2CCCC[C@H]2c2oc(-c3ccc(Cl)cc3F)nc2-c2ccc(N3CCS(=O)(=O)CC3)cc2)CC1 [Example 94, (1R,2R)-2-(2-(4-chloro-2-fluorophenyl)-4-(4-(1,1-dioxidothiomorpholino)phenyl)oxazol-5-yl)-N-(1-cyanocyclopropyl) cyclohexanecarboxamide]	1.2	380
N#CC1(NC(=O)[C@@H]2CCCC[C@H]2c2oc(-c3cncc(Cl)c3)nc2-c2ccc(N3CCS(=O)(=O)CC3)cc2)CC1 [Example 95, (1R,2R)-2-(2-(5-chloropyridin-3-yl)-4-(4-(1,1-dioxidothiomorpholino)phenyl)oxazol-5-yl)-N-(1-cyanocyclopropyl) cyclohexanecarboxamide]	1.17	775
N#CC1(NC(=O)[C@@H]2CCCC[C@H]2c2oc(-c3ccccc3OC(F)F)nc2-c2ccc(N3CCS(=O)(=O)CC3)cc2)CC1 [Example 96, (1R,2R)-N-(1-cyanocyclopropyl)-2-(2-(2-(difluoromethoxy)phenyl)-4-(4-(1,1-dioxidothiomorpholino)phenyl)oxazol-5-yl)cyclohexanecarboxamide]	0.87	363
N#CC1(NC(=O)[C@@H]2CCCC[C@H]2c2oc(-c3cccnn3)nc2-c2ccc(N3CCS(=O)(=O)CC3)cc2)CC1 [Example 97, (1R,2R)-N-(1-cyanocyclopropyl)-2-(4-(4-(1,1-dioxidothiomorpholino)phenyl)-2-(pyridazin-3-yl)oxazol-5-yl)cyclohexanecarboxamide]	2.83	2550
N#CC1(NC(=O)[C@@H]2CCCC[C@H]2c2oc(-c3cccc(C(F)(F)F)n3)nc2-c2ccc(N3CCS(=O)(=O)CC3)cc2)CC1 [Example 100, (1R,2R)-N-(1-cyanocyclopropyl)-2-(4-(4-(1,1-dioxidothiomorpholino)phenyl)-2-(6-(trifluoromethyl)pyridin-2-yl)oxazol-5-yl)cyclohexanecarboxamide]	4.11	2860
N#CC1(NC(=O)[C@@H]2CCCC[C@H]2c2oc(-c3ccc(C4CC4)cc3)nc2-c2ccc(N3CCS(=O)(=O)CC3)cc2)CC1 [Example 101, (1R,2R)-N-(1-cyanocyclopropyl)-2-(2-(4-cyclopropylphenyl)-4-(4-(1,1-dioxidothiomorpholino)phenyl)oxazol-5-yl)cyclohexanecarboxamide]	0.88	377
N#CC1(NC(=O)[C@@H]2CCCC[C@H]2c2oc(-c3ccc(F)cc3)nc2-c2ccc(N3CCS(=O)(=O)CC3)c(Br)c2)CC1 [Example 102, (1R,2R)-2-(4-(3-bromo-4-(1,1-dioxidothiomorpholino)phenyl)-2-(4-fluorophenyl)oxazol-5-yl)-N-(1-cyanocyclopropyl) cyclohexanecarboxamide]	54.5	416
Cc1ncc(-c2nc(-c3ccc(N4CCS(=O)(=O)CC4)cc3)c([C@@H]3CCCC[C@H]3C(=O)NC3(C#N)CC3)o2)cn1 [Example 103, (1R,2R)-N-(1-cyanocyclopropyl)-2-(4-(4-(1,1-dioxidothiomorpholino)phenyl)-2-(2-methylpyrimidin-5-yl)oxazol-5-yl)cyclohexanecarboxamide]	1.35	1840
N#Cc1ccccc1-c1nc(-c2ccc(N3CCS(=O)(=O)CC3)cc2)c([C@@H]2CCCC[C@H]2C(=O)NC2(C#N)CC2)o1 [Example 105, (1R,2R)-N-(1-cyanocyclopropyl)-2-(2-(2-cyanophenyl)-4-(4-(1,1-dioxidothiomorpholino)phenyl)oxazol-5-yl)cyclohexanecarboxamide]	2.4	1920
N#CC1(NC(=O)[C@@H]2CCCC[C@H]2c2oc(-c3ccc(F)cc3F)nc2-c2ccc(N3CCS(=N)(=O)CC3)cc2)CC1 [Example 106, (1R,2R)-N-(1-cyanocyclopropyl)-2-(2-(2,4-difluorophenyl)-4-(4-(1-imino-1-oxidothiomorpholino)phenyl)oxazol-5-yl)cyclohexanecarboxamide]	1.59	192
N#CCNC(=O)[C@@H]1CCCC[C@H]1c1oc(-c2ccc(F)cc2)nc1-c1ccc(N2CCS(=O)(=O)CC2)cc1 [Example 112, (1R,2R)-N-(cyanomethyl)-2-(4-(4-(1,1-dioxidothiomorpholino)phenyl)-2-(4-fluorophenyl)oxazol-5-yl)cyclohexanecarboxamide]	0.73	126

Continued, values first:

IC50 [1] [nM]	IC50 [2] [nM]	Structure (SMILES)
1.35	819	CC(C)(C)c1ccc(-c2nc(-c3ccc(N4CCS(=O)(=O)CC4)cc3)c([C@@H]3CCCC[C@H]3C(=O)NC3(C#N)CC3)o2)cc1 [Example 89, (1R,2R)-2-(2-(4-(tert-butyl)phenyl)-4-(4-(1,1-dioxidothiomorpholino)phenyl)oxazol-5-yl)-N-(1-cyanocyclopropyl) cyclohexanecarboxamide]
1.43	2310	N#CC1(NC(=O)[C@@H]2CCCC[C@H]2c2oc(C3C4CC3C4)nc2-c2ccc(N3CCS(=O)(=O)CC3)cc2)CC1 (stereo partly drawn) [Example 98, (1R,2R)-2-(2-(bicyclo[1.1.1]pentan-2-yl)-4-(4-(1,1-dioxidothiomorpholino)phenyl)oxazol-5-yl)-N-(1-cyanocyclopropyl) cyclohexanecarboxamide]
1.89	2230	CC1(c2nc(-c3ccc(N4CCS(=O)(=O)CC4)cc3)c([C@@H]3CCCC[C@H]3C(=O)NC3(C#N)CC3)o2)CCOCC1 [Example 99, (1R,2R)-N-(1-cyanocyclopropyl)-2-(4-(4-(1,1-dioxidothiomorpholino)phenyl)-2-(4-methyltetrahydro-2H-pyran-4-yl)oxazol-5-yl)cyclohexanecarboxamide]
2.31	1290	C[C@@H]1CC(F)(F)CC[C@@H]1c1nc(-c2ccc(N3CCS(=O)(=O)CC3)cc2)c([C@@H]2CCCC[C@H]2C(=O)NC2(C#N)CC2)o1 [Example 107, (1R,2R)-N-(1-cyanocyclopropyl)-2-(2-((1S,2R)-4,4-difluoro-2-methylcyclohexyl)-4-(4-(1,1-dioxidothiomorpholino)phenyl)oxazol-5-yl)cyclohexanecarboxamide]
2.08	1390	C[C@H]1CC(F)(F)CC[C@@H]1c1nc(-c2ccc(N3CCS(=O)(=O)CC3)cc2)c([C@@H]2CCCC[C@H]2C(=O)NC2(C#N)CC2)o1 [Example 108, (1R,2R)-N-(1-cyanocyclopropyl)-2-(2-((1S,2S)-4,4-difluoro-2-methylcyclohexyl)-4-(4-(1,1-dioxidothiomorpholino)phenyl)oxazol-5-yl)cyclohexanecarboxamide]
1.1	931	N#CC1(NC(=O)[C@@H]2CCCC[C@H]2c2oc(C3(C(F)(F)F)CC3)nc2-c2ccc(N3CCS(=O)(=O)CC3)cc2)CC1 [Example 110, (1R,2R)-N-(1-cyanocyclopropyl)-2-(4-(4-(1,1-dioxidothiomorpholino)phenyl)-2-(1-(trifluoromethyl)cyclopropyl)oxazol-5-yl)cyclohexanecarboxamide]
4.21	2450	CC1(C)C(c2nc(-c3ccc(N4CCS(=O)(=O)CC4)cc3)c([C@@H]3CCCC[C@H]3C(=O)NC3(C#N)CC3)o2)C1(C)C [Example 113, (1R,2R)-N-(1-cyanocyclopropyl)-2-(4-(4-(1,1-dioxidothiomorpholino)phenyl)-2-(2,2,3,3-tetramethylcyclopropyl)oxazol-5-yl)cyclohexanecarboxamide]
